Source: PubChem BioAssay AID1745844 (Carcinogenic Potency Database (CPDB), 2022)
Active and inactive are the calls of the source. The rule behind the calls is not given here.

System: rodent lifetime carcinogenesis bioassay, tumor incidence TD50
Experiment: carcinogenic potency in animals, long-term in vivo studies, CPDB compilation (AID 1745844)

Nc1ncn([C@@H]2O[C@H](CO)[C@@H](O)[C@H]2O)c(=O)n1
TD50 (mouse, strain B6C3F1, females, i.p., site: all sites + multiple organs, lesion: lymphoma + granulocytic leukemia + granulocytic sarcoma, dosed 52 weeks, study length 81 weeks): 0.256 mg/kg/day
TD50 (mouse, strain B6C3F1, females, i.p., site: all sites, lesion: lymphoma, dosed 52 weeks, study length 81 weeks): 0.615 mg/kg/day
TD50 (mouse, strain B6C3F1, females, i.p., site: any site (literature study), lesion: several types, types named in the paper, dosed 52 weeks, study length 81 weeks): 0.219 mg/kg/day
TD50 (mouse, strain B6C3F1, females, i.p., site: multiple organs, lesion: granulocytic leukemia + granulocytic sarcoma, dosed 52 weeks, study length 81 weeks): 0.52 mg/kg/day
TD50 (mouse, strain B6C3F1, males, i.p., site: any site (literature study), lesion: several types, types named in the paper, dosed 52 weeks, study length 81 weeks): 1.05 mg/kg/day
TD50 (mouse, strain B6C3F1, males, i.p., site: liver, lesion: hepatocellular adenoma + hepatocellular carcinoma + neoplastic nodule, dosed 52 weeks, study length 81 weeks): 15.7 mg/kg/day
TD50 (mouse, strain B6C3F1, males, i.p., site: lung, lesion: alveolar/bronchiolar adenoma + alveolar/bronchiolar carcinoma, dosed 52 weeks, study length 81 weeks): 61.4 mg/kg/day
TD50 (mouse, strain BALB/c, females, i.p., site: any site (literature study), lesion: one or several types, types not named, dosed 50 weeks, study length 72 weeks): 0.0364 mg/kg/day
TD50 (mouse, strain BALB/c, females, i.p., site: lymphoreticular system, lesion: several types, types named in the paper, dosed 50 weeks, study length 72 weeks): 0.0569 mg/kg/day
TD50 (mouse, strain BALB/c, females, i.p., site: mammary gland, lesion: adenocarcinoma, type B, dosed 50 weeks, study length 72 weeks): 0.618 mg/kg/day
TD50 (mouse, strain BALB/c, females, i.p., site: mammary gland, lesion: several types, types named in the paper, dosed 50 weeks, study length 72 weeks): 0.432 mg/kg/day
TD50 (mouse, strain BALB/c, females, i.p., site: skin, lesion: several types, types named in the paper, dosed 50 weeks, study length 72 weeks): 0.499 mg/kg/day
TD50 (mouse, strain BALB/c, males, i.p., site: any site (literature study), lesion: one or several types, types not named, dosed 50 weeks, study length 67 weeks): 0.0539 mg/kg/day
TD50 (mouse, strain BALB/c, males, i.p., site: liver, lesion: hepatocellular adenoma, dosed 50 weeks, study length 67 weeks): 1.49 mg/kg/day
TD50 (mouse, strain BALB/c, males, i.p., site: lung, lesion: adenoma, dosed 50 weeks, study length 67 weeks): 0.121 mg/kg/day
TD50 (mouse, strain BALB/c, males, i.p., site: lymphoreticular system, lesion: several types, types named in the paper, dosed 50 weeks, study length 67 weeks): 0.285 mg/kg/day
TD50 (mouse, strain BALB/c, males, i.p., site: skin, lesion: several types, types named in the paper, dosed 50 weeks, study length 67 weeks): 0.98 mg/kg/day
TD50 (rat, strain Fischer 344, males, i.p., site: any site (literature study), lesion: one or several types, types not named, dosed 52 weeks, study length 52 weeks): 0.17 mg/kg/day
TD50 (rat, strain Fischer 344, males, i.p., site: testis, lesion: one or several types, types not named, dosed 52 weeks, study length 52 weeks): 0.222 mg/kg/day
TD50 (rat, strain Sprague-Dawley, females, i.p., site: any site (literature study), lesion: several types, types named in the paper, dosed 34 weeks, study length 80 weeks): 0.487 mg/kg/day
TD50 (rat, strain Sprague-Dawley, males, i.p., site: any site (literature study), lesion: several types, types named in the paper, dosed 34 weeks, study length 80 weeks): 0.328 mg/kg/day

C[C@@H]1C\C=C/C=C/C=C/C=C/[C@H](O[C@@H]2O[C@H](C)[C@@H](O)[C@H](N)[C@@H]2O)C[C@@H]2O[C@](O)(C[C@@H](O)C[C@@H]3O[C@@H]3/C=C\C(=O)O1)C[C@H](O)[C@H]2C(=O)O
carcinogen call (rat, strain CFN, females, in feed, site: liver, lesion: malignant hepatoma, dosed 105 weeks, study length 105 weeks): negative (inactive)
TD50 (rat, strain CFN, males, in feed, site: lung, lesion: lymphosarcoma, dosed 105 weeks, study length 105 weeks): 1970 mg/kg/day (inactive)
carcinogen call (rat, strain CFN, males, in feed, site: thymus gland, lesion: thymoma, dosed 105 weeks, study length 105 weeks): negative (inactive)

O=c1cc[nH]c(=O)[nH]1
TD50 (mouse, strain B6C3F1, females, in feed, site: liver, lesion: hyperplastic nodule, dosed 96 weeks, study length 96 weeks): 18200 mg/kg/day
TD50 (mouse, strain B6C3F1, females, in feed, site: urinary bladder, lesion: carcinoma, in situ, dosed 96 weeks, study length 96 weeks): 56700 mg/kg/day
TD50 (mouse, strain B6C3F1, females, in feed, site: urinary bladder, lesion: leiomyosarcoma, dosed 96 weeks, study length 96 weeks): 56700 mg/kg/day
TD50 (mouse, strain B6C3F1, females, in feed, site: urinary bladder, lesion: transitional-cell carcinoma, dosed 96 weeks, study length 96 weeks): 1450 mg/kg/day
TD50 (mouse, strain B6C3F1, males, in feed, site: liver, lesion: hyperplastic nodule, dosed 96 weeks, study length 96 weeks): 48800 mg/kg/day
TD50 (mouse, strain B6C3F1, males, in feed, site: lung, lesion: adenocarcinoma, dosed 96 weeks, study length 96 weeks): 52300 mg/kg/day
TD50 (mouse, strain B6C3F1, males, in feed, site: urinary bladder, lesion: squamous-cell carcinoma, dosed 96 weeks, study length 96 weeks): 25700 mg/kg/day
TD50 (mouse, strain B6C3F1, males, in feed, site: urinary bladder, lesion: transitional-cell carcinoma, dosed 96 weeks, study length 96 weeks): 25700 mg/kg/day
TD50 (rat, strain F344/DuCrj, females, in feed, site: kidney/pelvis, lesion: carcinoma, dosed 104 weeks, study length 104 weeks): 9760 mg/kg/day
TD50 (rat, strain F344/DuCrj, females, in feed, site: urinary bladder, lesion: squamous-cell papilloma, dosed 104 weeks, study length 104 weeks): 29300 mg/kg/day
TD50 (rat, strain F344/DuCrj, females, in feed, site: urinary bladder, lesion: transitional-cell carcinoma, dosed 104 weeks, study length 104 weeks): 5640 mg/kg/day
TD50 (rat, strain F344/DuCrj, females, in feed, site: urinary bladder, lesion: transitional-cell papilloma, dosed 104 weeks, study length 104 weeks): 4260 mg/kg/day
TD50 (rat, strain F344/DuCrj, males, in feed, site: kidney/pelvis, lesion: carcinoma, dosed 104 weeks, study length 104 weeks): 3090 mg/kg/day
TD50 (rat, strain F344/DuCrj, males, in feed, site: kidney/pelvis, lesion: papilloma, dosed 104 weeks, study length 104 weeks): 5750 mg/kg/day
TD50 (rat, strain F344/DuCrj, males, in feed, site: urinary bladder, lesion: leiomyosarcoma, dosed 104 weeks, study length 104 weeks): 24300 mg/kg/day
TD50 (rat, strain F344/DuCrj, males, in feed, site: urinary bladder, lesion: squamous-cell carcinoma, dosed 104 weeks, study length 104 weeks): 7800 mg/kg/day
TD50 (rat, strain F344/DuCrj, males, in feed, site: urinary bladder, lesion: squamous-cell papilloma, dosed 104 weeks, study length 104 weeks): 24300 mg/kg/day
TD50 (rat, strain F344/DuCrj, males, in feed, site: urinary bladder, lesion: transitional-cell carcinoma, dosed 104 weeks, study length 104 weeks): 357 mg/kg/day
TD50 (rat, strain F344/DuCrj, males, in feed, site: urinary bladder, lesion: transitional-cell papilloma, dosed 104 weeks, study length 104 weeks): 511 mg/kg/day
